Common to all, as to type: biochemical
For test [1], the target named is T1, Recombinant human aldo-keto reductase family 1 member C2 (AKR1C2) protein (Homo sapiens, UniProt P52895).
T1 construct: made in house; host or cells: Sf-9 insect cells (baculovirus)
T1 sequence (P52895 1-323): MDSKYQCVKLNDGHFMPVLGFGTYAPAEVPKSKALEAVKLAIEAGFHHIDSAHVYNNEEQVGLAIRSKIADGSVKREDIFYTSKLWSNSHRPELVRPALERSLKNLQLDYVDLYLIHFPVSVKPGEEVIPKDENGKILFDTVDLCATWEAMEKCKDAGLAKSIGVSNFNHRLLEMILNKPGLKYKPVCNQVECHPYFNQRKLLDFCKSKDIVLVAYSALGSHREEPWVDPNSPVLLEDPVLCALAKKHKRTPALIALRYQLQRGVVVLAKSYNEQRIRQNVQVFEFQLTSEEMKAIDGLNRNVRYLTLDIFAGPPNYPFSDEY
Nature of the test: Inhibition of the aldo-keto reductase family 1 member C2, 3H-dihydrotestosterone conversion. The following applies: inhibitor at 10 μM. An outline of the steps:
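Single-point screen at 10 μM inhibitor, 1% DMSO: [3H]DHT (6.25 nM) reduction to 3α-diol by baculovirus-made AKR1C2 (13.6 nM), pH 7.4 phosphate buffer, 1 mM NADPH, 37 °C for 45 min. Radio-UPLC quantified product versus substrate to give percent inhibition.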

Test [2] deals with T2, Recombinant human AKR1C3 (17β-HSD5) protein (Homo sapiens, UniProt P42330).
T2 construct: made in house; host or cells: E. coli
T2 sequence (P42330 1-323): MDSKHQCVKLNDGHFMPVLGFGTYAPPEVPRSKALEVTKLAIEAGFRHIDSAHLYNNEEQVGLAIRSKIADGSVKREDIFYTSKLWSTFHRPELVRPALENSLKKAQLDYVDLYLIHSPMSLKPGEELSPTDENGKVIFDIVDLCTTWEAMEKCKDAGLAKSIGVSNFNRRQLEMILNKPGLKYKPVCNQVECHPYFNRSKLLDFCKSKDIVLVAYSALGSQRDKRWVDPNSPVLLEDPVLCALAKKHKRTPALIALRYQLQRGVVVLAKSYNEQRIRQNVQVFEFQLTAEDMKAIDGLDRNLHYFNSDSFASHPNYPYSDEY
The test can be described thus: Inhibition of AKR1C3 (17β-hydroxysteroid dehydrogenase type 5) enzyme, fluorescence assay. The following applies: inhibitor at 500 nM. An outline of the steps: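 Percent inhibition at 500 nM compound, derived from substrate conversion; product alcohol measured by fluorescence (ex 420, em 510 nm) against a 1 μM–10 nM standard curve. Reaction: 27 nM recombinant AKR1C3, 1 μM ketone substrate, 1 mM NADPH, phosphate/EDTA buffer pH 7.4, 1% DMSO, RT for 60–120 min.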

Test [3] concerns the target T3, 17β-Hydroxysteroid Dehydrogenase Type 2 Enzyme (17β-HSD2) (Homo sapiens, UniProt P37059).
T3 construct: made in house; host or cells: Sf-9 insect cells (baculovirus)
T3 sequence (P37059 1-387): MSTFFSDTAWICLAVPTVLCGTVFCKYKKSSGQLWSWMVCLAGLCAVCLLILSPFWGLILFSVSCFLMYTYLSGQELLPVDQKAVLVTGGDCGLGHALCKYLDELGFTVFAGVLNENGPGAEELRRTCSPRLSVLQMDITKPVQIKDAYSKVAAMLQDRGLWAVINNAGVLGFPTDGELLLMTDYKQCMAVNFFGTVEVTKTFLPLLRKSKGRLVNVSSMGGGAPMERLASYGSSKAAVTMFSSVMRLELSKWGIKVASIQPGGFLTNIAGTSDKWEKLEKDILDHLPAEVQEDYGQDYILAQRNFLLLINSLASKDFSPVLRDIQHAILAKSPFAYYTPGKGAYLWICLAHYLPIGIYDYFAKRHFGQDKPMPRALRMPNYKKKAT
The test can be described thus: Inhibition of the 17β-hydroxysteroid dehydrogenase type 2 enzyme, 3H-testosterone conversion. The following applies: inhibitor at 10 μM. The method, boiled down: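 Single-point screen at 10 μM inhibitor, 1% DMSO: Sf-9-expressed human enzyme (105 nM), NAD 1 mM, ³H-labelled testosterone 56.25 nM, pH 8.5 phosphate/EDTA buffer, 30 min, room temperature. After TCA quench, substrate and product radioactivity quantified by UPLC with scintillation detection; inhibition percent from conversion.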

Results on 20 compounds are retold here after patent US12637471B2, “Heterocyclic compounds, compositions, methods of preparation and uses thereof” (Organon R&D Finland Ltd, priority 2021, dated 2026).

On to `N#CC(=C1CCN(C(=O)N2CCC(O)CC2)CC1)c1cncc(Cl)c1` [Compound 86, 2-(5-chloropyridin-3-yl)-2-(1-(4-hydroxypiperidine-1-carbonyl)piperidin-4-ylidene)acetonitrile], for which the results for the inhibition at 10 µM in test [1] and in test [3] were 0% and 27%, respectively. The inhibition at 0.5 µM in test [2] is 80%.
The like results for `N#CC(=C1CCN(C(=O)N2CCc3nocc3C2)CC1)c1ccc(C(F)(F)F)cc1` [Compound 87, 2-(1-(4,5,6,7-tetrahydroisoxazolo[4,3-c]pyridine-5-carbonyl)piperidin-4-ylidene)-2-(4-(trifluoromethyl)phenyl)acetonitrile] were, in that order, 31%, 23% and 99%.
On the same counts, the results for `N#CC(=C1CCN(C(=O)N2CCC(CO)CC2)CC1)c1cccc(Cl)c1` [Compound 88, 2-(3-chlorophenyl)-2-(1-(4-(hydroxymethyl)piperidine-1-carbonyl)piperidin-4-ylidene)acetonitrile] are 13%, 26% and 99%.
On the same counts, the results for `N#CC(=C1CCN(C(=O)N2CCc3nocc3C2)CC1)c1cccc(Cl)c1` [Compound 89, 2-(3-chlorophenyl)-2-(1-(4,5,6,7-tetrahydroisoxazolo[4,3-c]pyridine-5-carbonyl)piperidin-4-ylidene)acetonitrile] are 18%, 15% and 98%.
For the compound `N#CC(=C1CCN(C(=O)N2CCC(C(F)(F)F)CC2)CC1)c1ccc(Cl)cc1` [Compound 90, 2-(4-chlorophenyl)-2-(1-(4-(trifluoromethyl)piperidine-1-carbonyl)piperidin-4-ylidene)acetonitrile], the inhibition at 10 µM came to 9% in test [1] and 30% in test [3]. The inhibition at 0.5 µM in test [2] stood at 99%.
As for `COC1CCN(C(=O)N2CCC(=C(C#N)c3ccc(F)cc3F)CC2)CC1` [Compound 91, 2-(2,4-difluorophenyl)-2-(1-(4-methoxypiperidine-1-carbonyl)piperidin-4-ylidene)acetonitrile], the inhibition at 10 µM in test [1] and in test [3] was 23% throughout. For the same compound, the inhibition at 0.5 µM in test [2] is 99%.
Take `CCOC1CCN(C(=O)N2CCC(=C(C#N)c3cccc4[nH]ncc34)CC2)CC1` [Compound 92, 2-(1-(4-ethoxypiperidine-1-carbonyl)piperidin-4-ylidene)-2-(1H-indazol-4-yl)acetonitrile]: the inhibition at 10 µM in test [1] came to 6%; in test [3] it was 30%. For the same compound, the inhibition at 0.5 µM in test [2] was found to be 96%.
Turning to `CC(=O)n1ncc2c(C(C#N)=C3CCN(C(=O)N4CCc5nocc5C4)CC3)cccc21` [Compound 93, 2-(1-acetyl-1H-indazol-4-yl)-2-(1-(4,5,6,7-tetrahydroisoxazolo[4,3-c]pyridine-5-carbonyl)piperidin-4-ylidene)acetonitrile], the values for the inhibition at 10 µM in test [1] and in test [3] were 11% and 23%, respectively. In addition, in test [2], the inhibition at 0.5 µM was 98%.
On the same counts, the results for `N#CC(=C1CCN(C(=O)N2CCC(O)CC2)CC1)c1n[nH]c2ccc(F)cc12` [Compound 94, 2-(5-fluoro-1H-indazol-3-yl)-2-(1-(4-hydroxypiperidine-1-carbonyl)piperidin-4-ylidene)acetonitrile] are 7%, 8% and 97%.
On the same counts, the results for `N#CC(=C1CCN(C(=O)N2CCC(CCCO)CC2)CC1)c1cccc(Cl)c1` [Compound 95, 2-(3-chlorophenyl)-2-(1-(4-(3-hydroxypropyl)piperidine-1-carbonyl)piperidin-4-ylidene)acetonitrile] are 22%, 25% and 94%.
Regarding `CC(=O)N1CCN(C(=O)N2CCC(=C(C#N)c3cccc(Cl)c3)CC2)CC1` [Compound 96, 2-(1-(4-acetylpiperazine-1-carbonyl)piperidin-4-ylidene)-2-(3-chlorophenyl)acetonitrile], the inhibition at 10 µM in test [1] is 13%; in test [3] it was 11%. In addition, in test [2], the inhibition at 0.5 µM was found to be 95%.
As for `N#CC(=C1CCN(C(=O)N2CCC(CCO)CC2)CC1)c1ccc(F)cc1` [Compound 97, 2-(4-fluorophenyl)-2-(1-(4-(2-hydroxyethyl)piperidine-1-carbonyl)piperidin-4-ylidene)acetonitrile], the inhibition at 10 µM in test [1] and in test [3] was 9% throughout. Besides, the inhibition at 0.5 µM in test [2] came out at 96%.
Regarding `N#CC(=C1CCN(C(=O)N2CCC(C(F)(F)F)CC2)CC1)c1ccc(F)cc1` [Compound 98, 2-(4-fluorophenyl)-2-(1-(4-(trifluoromethyl)piperidine-1-carbonyl)piperidin-4-ylidene)acetonitrile], the inhibition at 10 µM was found to be 8% in test [1] and 18% in test [3]. The inhibition at 0.5 µM in test [2] is 97%.
The like results for `N#CC(=C1CCN(C(=O)N2CCC(S(N)(=O)=O)CC2)CC1)c1cccc(Cl)c1` [Compound 99, 1-(4-((3-chlorophenyl)(cyano)methylene)piperidine-1-carbonyl)piperidine-4-sulfonamide] were, in that order, 16%, 18% and 96%.
`N#CC(=C1CCN(C(=O)N2CCSCC2)CC1)c1ccc(F)cc1` [Compound 100, 2-(4-fluorophenyl)-2-(1-(thiomorpholine-4-carbonyl)piperidin-4-ylidene)acetonitrile]: the figures for the inhibition at 10 µM in test [1] and in test [3] were 6% and -2%, respectively. Besides, in test [2], the inhibition at 0.5 µM worked out at 92%.
On the same counts, the results for `N#CC(=C1CCN(C(=O)N2CC3CCCC3C2)CC1)c1ccc(F)cc1` (stereo not drawn) [Compound 101, 2-(4-fluorophenyl)-2-(1-(octahydrocyclopenta[c]pyrrole-2-carbonyl)piperidin-4-ylidene)acetonitrile] are 11%, 14% and 90%.
For `N#CC(=C1CCN(C(=O)N2CCc3ccccc32)CC1)c1ccc(F)cc1` [Compound 102, 2-(4-fluorophenyl)-2-(1-(indoline-1-carbonyl)piperidin-4-ylidene)acetonitrile], the inhibition at 10 µM stood at 17% in test [1] and 12% in test [3]. Moreover, in test [2], the inhibition at 0.5 µM was determined as 99%.
On the same counts, the results for `CN(C(=O)N1CCC(=C(C#N)c2ccc(Cl)s2)CC1)C1COC1` [Compound 103, 4-((5-chlorothiophen-2-yl)(cyano)methylene)-N-methyl-N-(oxetan-3-yl)piperidine-1-carboxamide] are 19%, -4% and 95%.
`N#CC(=C1CCN(C(=O)N2CCCCC2)CC1)c1ccc(Cl)cc1` [Compound 104, 2-(4-chlorophenyl)-2-(1-(piperidine-1-carbonyl)piperidin-4-ylidene)acetonitrile]: the figures for the inhibition at 10 µM in test [1] and in test [3] were 5% and 0%, respectively. Moreover, the inhibition at 0.5 µM in test [2] stood at 96%.
On the same counts, the results for `CCN(CC)C(=O)N1CCC(=C(C#N)c2ccc(Cl)cc2)CC1` [Compound 105, 4-((4-chlorophenyl)(cyano)methylene)-N,N-diethylpiperidine-1-carboxamide] are 10%, 15% and 100%.
